The values that follow come from patent US10464926B2, “Heterobicyclic compounds and their use for the treatment of tuberculosis” (OTSUKA PHARMACEUTICAL CO., LTD., priority 2014, dated 2019).

The subject of data set [1] is Mycobacterium tuberculosis (M. tuberculosis Kurono). Description: Antibacterial test (agar dilution method), M. tuberculosis Kurono. Format: cell-based. Particulars: Mycobacterium tuberculosis, 336 h; 7H11 agar medium, about 10^6 CFU/mL, 37° C. for 14 days; read-out: Minimum inhibitory concentration (MIC) kurono.
Data set [2] deals with Mycobacterium tuberculosis (M. tuberculosis H37Rv). Description: Antibacterial test (agar plate dilution method), M. tuberculosis H37Rv. Particulars: 336 h, 7H11 agar medium, about 10^6 CFU/mL, 37° C. for 14 days, read-out: minimum inhibitory concentration against M. tuberculosis H37Rv. It counts as cell-based.

On to `O=C1CCc2c(OC[C@]3(O)CCN(c4ccc(Cl)cc4F)C[C@H]3O)ccc(F)c2N1` [Example 259, 5-{[(3R,4R)-1-(4-Chloro-2-fluorophenyl)-3,4-dihydroxypiperidin-4-yl]methoxy}-8-fluoro-3,4-dihydroquinolin-2(1H)-one], for which the MIC in data set [1] and in data set [2] was < 0.39 µg/mL each time.
The molecule `O=C1CCc2c(OCC3CCN(c4ncc(Cl)cc4Cl)CC3)ccc(F)c2N1` [Example 399, 5-{[1-(3,5-Dichloropyridin-2-yl)piperidin-4-yl]methoxy}-8-fluoro-3,4-dihydroquinolin-2(1H)-one] yielded a melting point of 194 to 195 °C. Moreover, the MIC in data set [1] is < 0.39 µg/mL.
